# Article PMC4186430, “Modeling of age-dependent amyloid accumulation and γ-secretase inhibition of soluble and insoluble Aβ in a transgenic mouse model of amyloid deposition” (Pharmacology Research & Perspectives, 2013)
# Marks after values point to notes of the source that are not given here.
# Test system: soluble Aβ40
# Experiment: Soluble (DEA) brain Aβ40 levels in Tg2576 mice after MRK-560, ELISA
# Type: in vivo, Tg2576 transgenic mice
# From the text: C57BL/6 female mice (Harlan Laboratories, Horst, The Netherlands), Tg2576 transgenic female mice (Taconics, Georgetown, NY), overexpressing human APP with the Swedish mutation (Hsiao et al. [1996]), and Tg2576 wild-type littermates were used in the experiments. The C57BL/6 and wild-type littermates were only used for pharmacokinetic PK sampling and analysis. The housing environment was humidity- and temperature-controlled with a constant 12-h light/dark cycle. The animals were kept in conventional housing (5–10 mice per cage) and had access to standard rodent chow and tap water ad libitum. The transgenic mice were aged at the local AstraZeneca (AZ) animal facilities. On the day of study, the mice were weighed. MRK-560 (synthesized in-house; AZ) or vehicle was administered by oral gavage. Three types of vehicles were used: (1) 1% MCC/NaCMC (Microcrystalline Cellulose/Sodiumcarboxymethyl Cellulose) +0.6% lipoid S100, (2) 20% HPβCD in 0.1 mol/L Meglumine, and (3) 40% HPβCD in 0.3 mol/L Meglumine. Observations of the animals’ health were made throughout all the experiments. Data from 23 MRK-560 studies were used in this analysis and details of all studies can be found in Table 1. For the AP analysis, data from vehicle and untreated Tg2576 mice from 48 additional (i.e., non-MRK-560) in-house studies were used. The additional dataset consisted of Aβ levels measured in Tg2576 mice of various ages, between 3.5 and 26 months at termination. Details of those data can be found in Appelkvist et al. ([2011]). In total, data from 71 preclinical studies were used.
# After blood sampling, mice were sacrificed by decapitation followed by brain samples collection. Cerebellum and olfactory bulbs were removed and the forebrain was divided into left and right hemispheres, weighed, and snap frozen.
# Left hemisphere of the cerebrum was sequentially extracted by diethylamine (DEA) followed by formic acid (FA) to obtain soluble and insoluble fractions of Aβ species, respectively. In short, brain tissue was sonicated in 1:18 (w/v) 0.2% DEA and 50 mmol/L NaCl, pH 11.6. After centrifugation (133,000g, 4°C, 1 h), the supernatant (soluble Aβ) was recovered, neutralized to a pH of 8.0 using 2 mol/L Tris-HCl, and immediately frozen to -70°C. The remaining pellet was sonicated in 1:18 (w/v) 70% FA. Homogenates were centrifuged at +4°C for 1 h at 133,000g. Recovered supernatants (insoluble Aβ) were neutralized to pH 7.5 with 1 mol/L Tris at 1:20 (w/v) dilutions, frozen on dry ice, and stored at −70°C until analysis.
# Amyloid beta (Aβ40) and Aβ42 concentrations were measured in plasma, in soluble (DEA), and insoluble (FA) brain fractions using commercial sandwich ELISA kits (KHB3482 from Invitrogen, Carlsbad, CA, and RUO80177 from Innogenetics, Gent, Belgium). To compensate for matrix effects, plasma or brain homogenates from non-transgenic mice were used for preparation of standard curves. The lower and higher limits of quantification (LLOQ and HLOQ) were determined for each immunoassay plate based on the lowest and highest standard point, respectively. The coefficient of variation was less than20% and the accuracy was between 80% and 120%.
# Statistical comparisons of the vehicle and MRK-560 treatment data were made by unpaired t-tests. The level of significance was set at P < 0.05. All analyses were performed using GraphPad Prism (GraphPad Prism Software Inc., San Diego, CA) and results were reported as mean ± SEM.
structure (smiles),measurement,setting,value
"O=S(=O)(NC1CCC(c2cc(F)ccc2F)(S(=O)(=O)c2ccc(Cl)cc2)CC1)C(F)(F)F (stereo not drawn) [MRK-560, N-[cis-4-[(4-chlorophenyl)-sulfonyl]-4-(2,5-difluorophenyl)cyclohexyl]-1,1,1-trifluoromethanesulfonamide]",decrease from baseline in soluble Aβ40 levels,"70 μmol/kg single dose, young mice, 6 h after dosing",74%
same,Effect on soluble Aβ40,"study 7, Tg2576, 20 weeks at start, 70 μmol/kg p.o., 4 days, 3 h since last dosing, P < 0.05",−72 ^* %
same,Effect on soluble Aβ40,"study 8, Tg2576, 24 weeks at start, 0.5 μmol/kg p.o., 30 days, 3 h since last dosing",−6%
same,Effect on soluble Aβ40,"study 8, Tg2576, 24 weeks at start, 6 μmol/kg p.o., 30 days, 3 h since last dosing, P < 0.05",−45.6 ^* %
same,Effect on soluble Aβ40,"study 9, Tg2576, 24 weeks at start, 0.5 μmol/kg p.o., 94 days, 3 h since last dosing",−17%
same,Effect on soluble Aβ40,"study 9, Tg2576, 24 weeks at start, 6 μmol/kg p.o., 94 days, 3 h since last dosing",−28%
same,Effect on soluble Aβ40,"study 10, Tg2576, 24 weeks at start, 1 μmol/kg p.o., 29 days, 3 h since last dosing, P < 0.05",−26 ^* %
same,Effect on soluble Aβ40,"study 10, Tg2576, 24 weeks at start, 3 μmol/kg p.o., 29 days, 3 h since last dosing, P < 0.05",−41 ^* %
same,Effect on soluble Aβ40,"study 10, Tg2576, 24 weeks at start, 6 μmol/kg p.o., 29 days, 3 h since last dosing, P < 0.05",−47 ^* %
same,Effect on soluble Aβ40,"study 11, Tg2576, 24 weeks at start, 6 μmol/kg p.o., 30 days, 3 h since last dosing, P < 0.05",−40 ^* %
same,Effect on soluble Aβ40,"study 12, Tg2576, 25 weeks at start, 70 μmol/kg p.o., 1 day, 3 h since last dosing, P < 0.05",−76 ^* %
same,Effect on soluble Aβ40,"study 13, Tg2576, 25 weeks at start, 1 μmol/kg p.o., 4 days, 3 h since last dosing, P < 0.05",−41 ^* %
same,Effect on soluble Aβ40,"study 13, Tg2576, 25 weeks at start, 3 μmol/kg p.o., 4 days, 3 h since last dosing, P < 0.05",−56 ^* %
same,Effect on soluble Aβ40,"study 13, Tg2576, 25 weeks at start, 7.5 μmol/kg p.o., 4 days, 3 h since last dosing, P < 0.05",−69 ^* %
same,Effect on soluble Aβ40,"study 14, Tg2576, 25 weeks at start, 70 μmol/kg p.o., 1 day, samples 3, 6, 24, 48, 120 h (text: 74% at 6 h), P < 0.05",−74 ^* %
same,Effect on soluble Aβ40,"study 15, Tg2576, 36 weeks at start, 6 μmol/kg p.o., vehicle 3, 8 days, 3 h since last dosing, P < 0.05",−50 ^* %
same,Effect on soluble Aβ40,"study 16, Tg2576, 60 weeks at start, 6 μmol/kg p.o., 4 days, 3 h since last dosing",−17%
same,Effect on soluble Aβ40,"study 17, Tg2576, 68 weeks at start, 6 μmol/kg p.o., 4 days, 3 h since last dosing",−6.3%
same,Effect on soluble Aβ40,"study 18, Tg2576, 81–89 weeks at start, 70 μmol/kg p.o., 1 day, samples 6, 24, 48, 96 h, time of this value not given",8%
same,Effect on soluble Aβ40,"study 19, Tg2576, 32 weeks at start, 30 μmol/kg p.o., 4 days, 4.5 h since last dosing, P < 0.05",−55 ^* %
same,Effect on soluble Aβ40,"study 20, Tg2576, 32 weeks at start, 30 μmol/kg p.o., 21 days, 4.5 h since last dosing, P < 0.05",−70 ^* %
same,Effect on soluble Aβ40,"study 21, Tg2576, 36 weeks at start, 6 μmol/kg p.o., vehicle 3, 8 days, 3 h since last dosing, P < 0.05",−63 ^* %
same,Effect on soluble Aβ40,"study 22, Tg2576, 24–28 weeks at start, 30 μmol/kg p.o., 45 days, 4.5 h since last dosing, P < 0.05",−57 ^* %
same,Effect on soluble Aβ40,"study 23, Tg2576, 37–40 weeks at start, 30 μmol/kg p.o., 28 days, 4.5 h since last dosing, P < 0.05",−56 ^* %
